What follows are compounds tested against PIM1 (Homo sapiens (Human), UniProt P11309) (assay: Pim kinase inhibition, PIM1 LC3K (Example 901)).
Chain of PIM1 (P11309 whole entry): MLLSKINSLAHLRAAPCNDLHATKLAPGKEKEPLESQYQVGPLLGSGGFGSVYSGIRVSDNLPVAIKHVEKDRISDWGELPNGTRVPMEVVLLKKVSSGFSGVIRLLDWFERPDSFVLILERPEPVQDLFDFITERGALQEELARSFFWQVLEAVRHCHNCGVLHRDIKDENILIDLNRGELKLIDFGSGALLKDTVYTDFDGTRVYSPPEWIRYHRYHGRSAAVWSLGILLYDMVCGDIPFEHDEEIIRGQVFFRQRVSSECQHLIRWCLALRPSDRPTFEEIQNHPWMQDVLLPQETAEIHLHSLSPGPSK
Assay type: biochemical
Excerpt: Determination of the Pim kinase activity of a Formula I compound is possible by a number of direct and indirect detection methods.
With `Cn1ncc(NC(=O)c2nc(-c3cccc(O)n3)sc2N)c1N1CCC[C@H](N)CC1` [Example 393, 5-amino-N-[5-[(4S)-4-aminoazepan-1-yl]-1-methyl-pyrazol-4-yl]-2-(6-hydroxy-2-pyridyl)thiazole-4-carboxamide] the Ki was 14 nM. With `Cn1ncc(NC(=O)c2nc(-c3ccccc3F)cnc2N)c1N1CC[C@@H](N)CC(F)(F)C1` (single isomer, unassigned) [Example 248] the Ki was 0.007 nM. For `COC1(C)CC(N)CCN(c2c(NC(=O)c3nc(-c4ccncc4F)sc3N)cnn2C)C1` (stereo not drawn) [Example 475, 5-amino-N-[5-(5-amino-3-methoxy-3-methyl-azepan-1-yl)-1-methyl-pyrazol-4-yl]-2-(3-fluoro-4-pyridyl)thiazole-4-carboxamide], the Ki was 0.212 nM. `Cc1cnc(C)c(-c2nc(C(=O)Nc3cnn(C)c3N3CC[C@@H](N)[C@H](F)CC3)c(N)s2)c1` [Example 445, 5-amino-N-[5-[(4R,5R)-4-amino-5-fluoro-azepan-1-yl]-1-methyl-pyrazol-4-yl]-2-(2,5-dimethyl-3-pyridyl)thiazole-4-carboxamide] was tested, and the Ki was 0.446 nM. With `Cn1ncc(NC(=O)c2nc(-c3c(F)cccc3F)sc2N)c1N1CCC[C@H](N(CCO)CCO)CC1` [Example 336, 5-amino-N-[5-[(4S)-4-[bis(2-hydroxyethyl)amino]azepan-1-yl]-1-methyl-pyrazol-4-yl]-2-(2,6-difluorophenyl)thiazole-4-carboxamide] the Ki was 0.199 nM. For `Cc1ccc(F)c(-c2nc(C(=O)Nc3cnn(C)c3N3CC[C@@H](F)[C@@H](N)CC3)c(N)s2)c1` [Example 272, 5-amino-N-(5-((4S,5R)-4-amino-5-fluoroazepan-1-yl)-1-methyl-1H-pyrazol-4-yl)-2-(2-fluoro-5-methylphenyl)thiazole-4-carboxamide], the Ki was 0.147 nM. `Nc1sc(-c2c(F)cccc2F)nc1C(=O)Nc1cnn(CC2COC2)c1N1CCNCC1` [Example 251, 5-Amino-2-(2,6-difluoro-phenyl)-thiazole-4-carboxylic acid (1-oxetan-3-ylmethyl-5-piperazin-1-yl-1H-pyrazol-4-yl)-amide] gave a Ki of over 667 nM. Work on `Cn1ncc(NC(=O)c2nc(-c3c(F)cccc3F)sc2N)c1N1CCCN(C2CNC2)CC1` [Example 362, 5-amino-N-[5-[4-(azetidin-3-yl)-1,4-diazepan-1-yl]-1-methyl-pyrazol-4-yl]-2-(2,6-difluorophenyl)thiazole-4-carboxamide] yielded a Ki of 0.25 nM. For `Cn1ncc(NC(=O)c2nc(-c3c(F)cccc3F)sc2N)c1N1CCC2(CNC2)C1` [Example 359, 5-amino-N-[5-(2,6-diazaspiro[3.4]octan-6-yl)-1-methyl-pyrazol-4-yl]-2-(2,6-difluorophenyl)thiazole-4-carboxamide], the Ki was 0.783 nM. `Cn1ncc(NC(=O)c2nc(-c3cc(F)ccc3F)sc2N)c1N1CC[C@@H](N)CC(F)(F)C1` [Example 283, (R)-5-amino-N-(5-(5-amino-3,3-difluoroazepan-1-yl)-1-methyl-1H-pyrazol-4-yl)-2-(2,5-difluorophenyl)thiazole-4-carboxamide] was tested, and the Ki was 0.008 nM. In the case of `COC1CCN(c2c(NC(=O)c3nc(-c4c(F)cccc4F)sc3N)cnn2C2CC2)CCC1N` (single isomer, unassigned) [Example 404, 5-amino-N-[5-(4-amino-5-methoxy-azepan-1-yl)-1-cyclopropyl-pyrazol-4-yl]-2-(2,6-difluorophenyl)thiazole-4-carboxamide], the Ki is reported as 0.036 nM. For `Nc1sc(-c2cc(F)ccc2F)nc1C(=O)Nc1cnn(CC(F)F)c1N1CCCC(O)CC1` (stereo not drawn) [Example 118, 5-Amino-N-(1-(2,2-difluoroethyl)-5-(4-hydroxyazepan-1-yl)-1H-pyrazol-4-yl)-2-(2,5-difluorophenyl)thiazole-4-carboxamide], the Ki was 0.292 nM. For `Cn1ncc(NC(=O)c2nc(-c3c(F)cccc3F)sc2N)c1N1CCC(N)C2(CCO2)CC1` (single isomer, unassigned) [Example 498, 5-amino-N-[5-(5-amino-1-oxa-8-azaspiro[3.6]decan-8-yl)-1-methyl-pyrazol-4-yl]-2-(2,6-difluorophenyl)thiazole-4-carboxamide], the Ki was 0.038 nM. In the case of `Cn1ncc(NC(=O)c2nc(-c3ccccc3F)cnc2N)c1N1CC[C@H](N)CC(F)(F)C1` [Example 247, (S)-3-amino-N-(5-(5-amino-3,3-difluoroazepan-1-yl)-1-methyl-1H-pyrazol-4-yl)-6-(2-fluorophenyl)pyrazine-2-carboxamide], the Ki is reported as 0.01 nM. Work on `Nc1sc(-c2c(F)cccc2F)nc1C(=O)Nc1cnn(CC(F)F)c1N1CC[C@H](N)CC(F)(F)C1` (single isomer, unassigned) [Example 280] yielded a Ki of 0.01 nM. With `Cn1ncc(NC(=O)c2nc(-c3c(F)cccc3F)sc2N)c1N1CCC(N)C2(CCO2)CC1` (single isomer, unassigned) [Example 501, 5-amino-N-[5-(5-amino-1-oxa-8-azaspiro[3.6]decan-8-yl)-1-methyl-pyrazol-4-yl]-2-(2,6-difluorophenyl)thiazole-4-carboxamide] the Ki was 0.025 nM. `Nc1sc(-c2c(F)cccc2F)nc1C(=O)Nc1cnn(CC(F)(F)F)c1N1CCCCC(N)C1` (stereo not drawn) [Example 303, 5-Amino-2-(2,6-difluoro-phenyl)-thiazole-4-carboxylic acid [5-(3-amino-azepan-1-yl)-1-(2,2,2-trifluoro-ethyl)-1H-pyrazol-4-yl]-amide] was tested, and the Ki was 0.208 nM. With `Nc1sc(-c2c(F)cccc2F)nc1C(=O)Nc1cnn(CC(F)F)c1N1CC[C@@H](N)CC(F)(F)C1` [Example 281] the Ki was 0.02 nM. Compound `CCn1ncc(NC(=O)c2nc(-c3c(F)cccc3F)sc2N)c1N1CCC(N)C(OC)CC1` (single isomer, unassigned) [Example 389, 5-amino-N-[5-(4-amino-5-methoxy-azepan-1-yl)-1-ethyl-pyrazol-4-yl]-2-(2,6-difluorophenyl)thiazole-4-carboxamide] has a Ki of 0.624 nM. With `Cn1ncc(NC(=O)c2nc(-c3ncccc3F)sc2N)c1N1CC[C@@H](N)[C@H](F)CC1` [Example 268, 5-amino-N-(5-((4R,5R)-4-amino-5-fluoroazepan-1-yl)-1-methyl-1H-pyrazol-4-yl)-2-(3-fluoropyridin-2-yl)thiazole-4-carboxamide] the Ki was 0.186 nM. Work on `COc1nccc(C)c1-c1nc(C(=O)Nc2cnn(C)c2N2CCC[C@H](N)CC2)c(N)s1` [Example 427, 5-amino-N-[5-[(4S)-4-aminoazepan-1-yl]-1-methyl-pyrazol-4-yl]-2-(2-methoxy-4-methyl-3-pyridyl)thiazole-4-carboxamide] yielded a Ki of 3.7 nM. `Cn1ncc(NC(=O)c2nc(-c3c(F)cccc3F)sc2N)c1N1CCNCC(C#N)C1` (stereo not drawn) [Example 382, 5-amino-N-[5-(6-cyano-1,4-diazepan-1-yl)-1-methyl-pyrazol-4-yl]-2-(2,6-difluorophenyl)thiazole-4-carboxamide] gave a Ki of 2.81 nM. In the case of `COC1(C)CC(N)CCN(c2c(NC(=O)c3nc(-c4c(F)cncc4F)sc3N)cnn2C)C1` (stereo not drawn) [Example 474, 5-amino-N-[5-(5-amino-3-methoxy-3-methyl-azepan-1-yl)-1-methyl-pyrazol-4-yl]-2-(3,5-difluoro-4-pyridyl)thiazole-4-carboxamide], the Ki is reported as 0.425 nM. `Nc1sc(-c2c(F)cccc2F)nc1C(=O)Nc1cnn(CC(F)(F)F)c1N1CCCCC(N)C1` (stereo not drawn) [Example 302, 5-Amino-2-(2,6-difluoro-phenyl)-thiazole-4-carboxylic acid [5-(3-amino-azepan-1-yl)-1-(2,2,2-trifluoro-ethyl)-1H-pyrazol-4-yl]-amide] showed a Ki of 0.175 nM. Compound `Cn1ncc(NC(=O)c2nc(-c3ccccc3F)cnc2N)c1N1CCC(N)CC(F)(F)C1` (racemic) [Example 293, 3-amino-N-(5-(5-amino-3,3-difluoroazepan-1-yl)-1-methyl-1H-pyrazol-4-yl)-6-(2-fluorophenyl)pyrazine-2-carboxamide] has a Ki of 0.023 nM. For `CCn1ncc(NC(=O)c2nc(-c3c(F)cccc3F)sc2N)c1N1CC[C@H](OC)[C@@H](N)CC1` [Example 364, 5-amino-N-(5-((4S,5S)-4-amino-5-methoxyazepan-1-yl)-1-ethyl-1H-pyrazol-4-yl)-2-(2,6-difluorophenyl)thiazole-4-carboxamide], the Ki was 0.247 nM. Compound `Cc1noc(C)c1-c1nc(C(=O)Nc2cnn(C)c2N2CCC[C@H](N)CC2)c(N)s1` [Example 421, 5-amino-N-[5-[(4S)-4-aminoazepan-1-yl]-1-methyl-pyrazol-4-yl]-2-(3,5-dimethylisoxazol-4-yl)thiazole-4-carboxamide] has a Ki of 4.37 nM. `Cn1ncc(NC(=O)c2nc(-c3c(F)cccc3F)sc2N)c1N1CCC2(CCNC2=O)CC1` [Example 360, 5-amino-2-(2,6-difluorophenyl)-N-[1-methyl-5-(1-oxo-2,8-diazaspiro[4.5]decan-8-yl)pyrazol-4-yl]thiazole-4-carboxamide] gave a Ki of 0.391 nM. In the case of `Cn1ncc(NC(=O)c2nc(-c3cc(C#N)ccc3F)sc2N)c1N1CC[C@@H](N)[C@H](F)CC1` [Example 442, 5-amino-N-[5-[(4R,5R)-4-amino-5-fluoro-azepan-1-yl]-1-methyl-pyrazol-4-yl]-2-(5-cyano-2-fluoro-phenyl)thiazole-4-carboxamide], the Ki is reported as 1.08 nM. Work on `COC1CCN(c2c(NC(=O)c3nc(-c4c(F)cccc4F)sc3N)cnn2C2CC2)CCC1N` (single isomer, unassigned) [Example 403, 5-amino-N-[5-(4-amino-5-methoxy-azepan-1-yl)-1-cyclopropyl-pyrazol-4-yl]-2-(2,6-difluorophenyl)thiazole-4-carboxamide] yielded a Ki of 0.21 nM. Work on `Nc1sc(-c2c(F)cccc2F)nc1C(=O)Nc1cnn(C2CC2)c1N1CCC(N)C(F)CC1` (single isomer, unassigned) [Example 332, 5-amino-N-[5-(4-amino-5-fluoro-azepan-1-yl)-1-cyclopropyl-pyrazol-4-yl]-2-(2,6-difluorophenyl)thiazole-4-carboxamide] yielded a Ki of 0.148 nM. In the case of `C[C@H]1CN(c2c(NC(=O)c3nc(-c4c(F)cccc4F)sc3N)cnn2CC(F)(F)F)CCN1` [Example 301, (S)-5-Amino-2-(2,6-difluorophenyl)-N-(5-(3-methylpiperazin-1-yl)-1-(2,2,2-trifluoroethyl)-1H-pyrazol-4-yl)thiazole-4-carboxamide], the Ki is reported as 2.1 nM. `Cn1ncc(NC(=O)c2nc(-c3ncccc3F)sc2N)c1N1CC[C@H](N)[C@@H](F)CC1` [Example 269, 5-amino-N-(5-((4S,5S)-4-amino-5-fluoroazepan-1-yl)-1-methyl-1H-pyrazol-4-yl)-2-(3-fluoropyridin-2-yl)thiazole-4-carboxamide] was tested, and the Ki was 0.091 nM.

From patent publication US8614206B2 (Genentech, Inc., priority 2011, dated 2013)
